From BindingDB's records for doi:10.1016/S0960-894X(01)80724-1 (1993)
pIC50: −log10 of the molar value.

Each compound was assayed against Squalene synthase (Candida albicans) (assay: Inhibition of Candida albicans squalene synthase(SQS)).

Row | Compound | pIC50
1 | C=C(CC[C@]12O[C@H](C(=O)O)[C@@](O)(C(=O)O)[C@](C(=O)O)(O1)[C@H](OC(=O)CCCCCCC)[C@H]2OC(=O)CCCCCCC)[C@@H](OC(C)=O)[C@H](C)Cc1ccccc1 [(1S,3S,4S,5R,6R,7R)-1-((4S,5R)-4-Acetoxy-5-methyl-3-methylene-6-phenyl-hexyl)-4-hydroxy-6,7-bis-octanoyloxy-2,8-dioxa-bicyclo[3.2.1]octane-3,4,5-tricarboxylic acid] | < 6.70
2 | C=C(CC[C@]12O[C@H](C(=O)O)[C@@](O)(C(=O)O)[C@](C(=O)O)(O1)[C@H](O)[C@H]2OC(=O)OC)[C@@H](OC(C)=O)[C@H](C)Cc1ccccc1 [(1S,3S,4S,5R,6R,7R)-1-((4S,5R)-4-Acetoxy-5-methyl-3-methylene-6-phenyl-hexyl)-4,6-dihydroxy-7-methoxycarbonyloxy-2,8-dioxa-bicyclo[3.2.1]octane-3,4,5-tricarboxylic acid] | < 6.70
3 | C=C(CC[C@]12O[C@H](C(=O)O)[C@@](O)(C(=O)O)[C@](C(=O)O)(O1)[C@H](OC(=O)OCCCCCCCCC)[C@H]2O)[C@@H](OC(C)=O)[C@H](C)Cc1ccccc1 [(1S,3S,4S,5R,6R,7R)-1-((4S,5R)-4-Acetoxy-5-methyl-3-methylene-6-phenyl-hexyl)-4,7-dihydroxy-6-nonyloxycarbonyloxy-2,8-dioxa-bicyclo[3.2.1]octane-3,4,5-tricarboxylic acid] | 8.70
4 | C=C(CC[C@]12O[C@H](C(=O)O)[C@@](O)(C(=O)O)[C@](C(=O)O)(O1)[C@H](OC(=O)CCCCCCc1ccccc1)[C@H]2O)[C@@H](OC(C)=O)[C@H](C)Cc1ccccc1 [(1S,3S,4S,5R,6R,7R)-1-((4S,5R)-4-Acetoxy-5-methyl-3-methylene-6-phenyl-hexyl)-4,7-dihydroxy-6-(7-phenyl-heptanoyloxy)-2,8-dioxa-bicyclo[3.2.1]octane-3,4,5-tricarboxylic acid] | 8.15
5 | C=C(CC[C@]12O[C@H](C(=O)O)[C@@](O)(C(=O)O)[C@](C(=O)O)(O1)[C@H](O)[C@H]2OC(C)=O)[C@@H](OC(C)=O)[C@H](C)Cc1ccccc1 [(1S,3S,4S,5R,6R,7R)-7-Acetoxy-1-((4S,5R)-4-acetoxy-5-methyl-3-methylene-6-phenyl-hexyl)-4,6-dihydroxy-2,8-dioxa-bicyclo[3.2.1]octane-3,4,5-tricarboxylic acid] | < 6.70
6 | C=C(CC[C@]12O[C@H](C(=O)O)[C@@](O)(C(=O)O)[C@](C(=O)O)(O1)[C@H](O)[C@H]2OC(=O)CCCCCCC)[C@@H](OC(C)=O)[C@H](C)Cc1ccccc1 [(1S,3S,4S,5R,6R,7R)-1-((4S,5R)-4-Acetoxy-5-methyl-3-methylene-6-phenyl-hexyl)-4,6-dihydroxy-7-octanoyloxy-2,8-dioxa-bicyclo[3.2.1]octane-3,4,5-tricarboxylic acid] | < 6.70
7 | C=C(CC[C@]12O[C@H](C(=O)O)[C@@](O)(C(=O)O)[C@](C(=O)O)(O1)[C@H](OC(=O)OCCCC)[C@H]2O)[C@@H](OC(C)=O)[C@H](C)Cc1ccccc1 [(1S,3S,4S,5R,6R,7R)-1-((4S,5R)-4-Acetoxy-5-methyl-3-methylene-6-phenyl-hexyl)-6-butoxycarbonyloxy-4,7-dihydroxy-2,8-dioxa-bicyclo[3.2.1]octane-3,4,5-tricarboxylic acid] | 8.10
8 | C=C(CC[C@]12O[C@H](C(=O)O)[C@@](O)(C(=O)O)[C@](C(=O)O)(O1)[C@H](OC(=O)/C=C/c1ccccc1)[C@H]2O)[C@@H](OC(C)=O)[C@H](C)Cc1ccccc1 [(1S,3S,4S,5R,6R,7R)-1-((4S,5R)-4-Acetoxy-5-methyl-3-methylene-6-phenyl-hexyl)-4,7-dihydroxy-6-[(E)-(3-phenyl-acryloyl)oxy]-2,8-dioxa-bicyclo[3.2.1]octane-3,4,5-tricarboxylic acid] | 8.00
